From patent US12214015B2, “Use of c-type natriuretic peptide variants to treat osteoarthritis” (priority 2015, dated 2025)
Where no end group is shown, it is not given here.

Experiments:
NPR-C = NPR-C (Homo sapiens, UniProt P17342); conditions: read-out: affinity to NPR-C; cited from earlier work
NEP = NEP (Homo sapiens, UniProt P08473); conditions: NEP digestion for 2.5 minutes in vitro; Cys6-Phe7 and Gly8-Leu9 slightly most labile
[1] = clearance by NEP and NPR-C; cited from earlier work
NPR-B [2] = molecular target: T1, NPR-B (Homo sapiens, UniProt P20594); conditions: read-out: affinity to NPR-B; cited from earlier work
T1 sequence (P20594 23-1047): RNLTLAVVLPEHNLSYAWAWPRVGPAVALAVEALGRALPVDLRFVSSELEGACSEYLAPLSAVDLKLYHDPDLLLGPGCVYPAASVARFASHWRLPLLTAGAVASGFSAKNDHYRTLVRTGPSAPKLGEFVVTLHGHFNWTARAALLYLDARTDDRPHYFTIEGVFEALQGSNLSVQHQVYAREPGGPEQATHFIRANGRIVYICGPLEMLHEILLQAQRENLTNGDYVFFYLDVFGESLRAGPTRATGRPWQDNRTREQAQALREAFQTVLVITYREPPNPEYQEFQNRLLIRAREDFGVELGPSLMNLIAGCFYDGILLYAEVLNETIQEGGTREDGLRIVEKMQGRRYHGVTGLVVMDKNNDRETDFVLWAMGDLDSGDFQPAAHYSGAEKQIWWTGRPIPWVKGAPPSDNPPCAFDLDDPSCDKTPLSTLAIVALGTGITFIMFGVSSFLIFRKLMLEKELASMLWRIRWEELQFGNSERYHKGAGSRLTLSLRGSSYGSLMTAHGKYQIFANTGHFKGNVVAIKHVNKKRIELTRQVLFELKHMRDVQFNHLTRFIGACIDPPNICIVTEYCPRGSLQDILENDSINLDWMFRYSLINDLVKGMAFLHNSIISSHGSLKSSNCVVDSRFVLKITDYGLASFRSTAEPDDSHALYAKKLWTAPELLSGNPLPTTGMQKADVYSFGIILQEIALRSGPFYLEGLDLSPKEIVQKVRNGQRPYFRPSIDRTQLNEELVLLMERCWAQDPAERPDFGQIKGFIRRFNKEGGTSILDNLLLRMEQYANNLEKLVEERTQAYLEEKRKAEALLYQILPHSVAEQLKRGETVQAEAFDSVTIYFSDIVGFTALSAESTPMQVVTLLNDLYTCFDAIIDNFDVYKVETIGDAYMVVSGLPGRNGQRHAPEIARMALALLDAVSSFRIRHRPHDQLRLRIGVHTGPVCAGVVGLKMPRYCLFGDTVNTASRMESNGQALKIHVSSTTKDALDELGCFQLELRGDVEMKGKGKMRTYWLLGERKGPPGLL

NPR-B [3] = molecular target: T1, NPR-B; conditions: cited from earlier work
[4] = test system: medial meniscal tear-induced osteoarthritis; test: Rat medial meniscal tear osteoarthritis model, knee histopathology (Example 1, IA dosing from Day 7); assay type: in vivo; conditions: for cartilage degeneration in the tibia: 3x/week for 3 weeks from Day 7, vs control rats
Protocol: A unilateral medial meniscal tear in 275-300 gram rats will result in rapidly progressive cartilage degeneration—characterized by chondrocyte and proteoglycan loss, fibrillation, osteophyte formation, and chondrocyte cloning. This model is performed by transection of the medial collateral ligament just below its attachment to the meniscus so that when the joint space opens, the meniscus is reflected toward the femur. The meniscus is cut at its narrowest point (away from the ossicles) taking care not to damage the tibial surface and making sure that the resulting transection produces separate, freely movable anterior and posterior meniscus halves.
Progressive cartilage degenerative changes occur and by 3-6 weeks post-surgery, tibial cartilage degeneration may be focally severe on the outer ⅓ of the tibia with degenerative changes of lesser severity in the middle and inner ⅓. Osteophytes are ultimately quite large (medial tibia) and progressively increase in size. The model is progressive and results in total cartilage loss (to eburnated bone) in […] in virtually all rats, with lesions that are reasonably consistent. […] Due to the rapid progression of cartilage degeneration, protective effects are not always apparent in the outer ⅓ of the tibial cartilage, although zonal analysis may reveal effects of treatment in the middle and inner ⅓. Substantial subchondral and epiphyseal bone changes occur in the medial tibia subjacent to the areas of greatest lesion severity. These range in magnitude and type from increased basophilia of the calcified cartilage layer with small fractures into subchondral bone to overt collapse of articular cartilage into areas of bone resorption in the epiphysis with surrounding sclerosis of bone. Therefore, this model offers the opportunity to evaluate not only chondroprotective effects of agents but also bone preserving activities. The model is of relatively short duration and animals are very consistent in their response to the surgery.
(§1) This rat model was used to determine the effect of CNP variants on slowing or repairing cartilage damage in osteoarthritis, where the CNP is delivered in response to joint injury or trauma. In this model a tear was introduced into the meniscus to provoke joint injury which results in cartilage degeneration and osteoarthritis (Janusz et al., Osteoarthritis Cartilage, 10:785-791, 2002). Male Lewis rats received a unilateral medial meniscectomy on Day 0; administration of control vehicle or the CNP variant Gly-CNP-37 began on Day 7; and the animals were euthanized on Day 29 for histopathological analysis of the affected joints. […] Therapeutic efficacy was evaluated by gait analysis and histopathological examination of chondrocyte death/cartilage degeneration in the knee.
In particular, surgery animals were anesthetized with isoflurane and the right knee and lower leg area were prepared for surgery. For the meniscal tear, a skin incision was made over the medial aspect of the knee and the medial collateral ligament was transected after being exposed by blunt dissection. The medial meniscus was cut through the full thickness to simulate a complete tear and the wound closed. Ninety minutes (90 min) post-surgery, animals were treated with a dose of Acetaminophen (100 mg/kg, PO) in 1% CMC (2 mL/kg, 50 mg/mL). A follow-on dose was given 24 hours post-surgery (as needed).
For histopathological analysis the operated joints were harvested from the euthanized rats. Following 4-6 days in 5% formic acid decalcifier, the operated joints are cut into two approximately equal halves in the frontal plane and embedded in paraffin. Sections were cut from each operated right knee at approximately 160 μm steps and stained with toluidine blue. […]

[5] = test system: medial meniscal tear-induced osteoarthritis; test: Gait analysis in rat meniscal tear osteoarthritis model (Example 1); assay type: in vivo
Text: as §1
Gait analysis was performed by applying ink to the ventral surface of the foot and documenting weight bearing during movement (footprints) across paper. Rear feet of rats were placed in ink and then rats were placed on paper and allowed to walk the full length. Gait was scored visually using the criteria in Table 5 (descriptions refer to diseased/affected leg).

[6] = test system: medial meniscal tear-induced osteoarthritis; test: Rat medial meniscal tear osteoarthritis model, knee histopathology (Example 2, IA or SC); assay type: in vivo

NPR-C, sequence (P17342 27-541, species assumed): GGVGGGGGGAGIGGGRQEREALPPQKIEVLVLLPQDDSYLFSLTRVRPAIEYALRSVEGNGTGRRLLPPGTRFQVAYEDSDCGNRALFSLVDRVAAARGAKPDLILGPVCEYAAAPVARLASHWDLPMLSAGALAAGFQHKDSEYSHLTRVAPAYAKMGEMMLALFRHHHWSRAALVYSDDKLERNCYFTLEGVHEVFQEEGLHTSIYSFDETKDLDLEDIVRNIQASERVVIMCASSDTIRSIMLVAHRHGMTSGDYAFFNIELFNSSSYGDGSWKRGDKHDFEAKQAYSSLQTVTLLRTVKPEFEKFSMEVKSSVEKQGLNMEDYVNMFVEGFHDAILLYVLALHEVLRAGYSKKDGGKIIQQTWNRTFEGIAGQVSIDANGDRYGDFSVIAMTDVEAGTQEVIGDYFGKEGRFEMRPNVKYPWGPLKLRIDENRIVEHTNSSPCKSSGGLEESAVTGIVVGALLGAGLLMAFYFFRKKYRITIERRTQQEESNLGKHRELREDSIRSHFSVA
NEP, sequence (P08473 whole entry): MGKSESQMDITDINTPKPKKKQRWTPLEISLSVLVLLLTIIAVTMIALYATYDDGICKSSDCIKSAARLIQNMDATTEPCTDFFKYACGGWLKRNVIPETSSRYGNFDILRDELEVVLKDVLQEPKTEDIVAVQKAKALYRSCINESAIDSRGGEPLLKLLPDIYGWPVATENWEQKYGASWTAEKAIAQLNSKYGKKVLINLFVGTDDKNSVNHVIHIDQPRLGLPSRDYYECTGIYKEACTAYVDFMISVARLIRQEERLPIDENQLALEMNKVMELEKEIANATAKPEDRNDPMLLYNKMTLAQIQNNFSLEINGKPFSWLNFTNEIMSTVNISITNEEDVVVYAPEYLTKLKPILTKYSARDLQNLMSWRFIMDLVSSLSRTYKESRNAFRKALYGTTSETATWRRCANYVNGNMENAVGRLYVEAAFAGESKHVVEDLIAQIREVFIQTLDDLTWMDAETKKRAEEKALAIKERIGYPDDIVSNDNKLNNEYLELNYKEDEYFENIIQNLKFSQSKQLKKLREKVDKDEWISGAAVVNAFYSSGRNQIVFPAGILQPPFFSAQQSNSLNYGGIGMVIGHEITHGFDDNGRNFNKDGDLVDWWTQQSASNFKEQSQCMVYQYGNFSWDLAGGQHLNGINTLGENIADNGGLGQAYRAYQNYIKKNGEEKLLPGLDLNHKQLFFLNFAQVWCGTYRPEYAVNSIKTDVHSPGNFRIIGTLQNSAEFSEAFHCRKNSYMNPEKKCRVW

Molecule: CC[C@H](C)[C@@H]1NC(=O)[C@H](CCCNC(=N)N)NC(=O)[C@H](CC(=O)O)NC(=O)[C@H](CC(C)C)NC(=O)[C@H](CCCCN)NC(=O)[C@H](CC(C)C)NC(=O)CNC(=O)[C@H](Cc2ccccc2)NC(=O)[C@@H](NC(=O)CNC(=O)[C@H](CCCCN)NC(=O)[C@H](CO)NC(=O)[C@H](CC(C)C)NC(=O)CN)CSSC[C@@H](C(=O)O)NC(=O)CNC(=O)[C@H](CC(C)C)NC(=O)CNC(=O)[C@H](CO)NC(=O)[C@H](CCSC)NC(=O)[C@H](CO)NC(=O)CNC1=O [CNP-22]
- Kd (NPR-C): 0.011 to 0.14 nM
- hydrolysis of NEP cleavage sites (NEP): all possible sites were unexpectedly hydrolyzed
- half-life [1]: ~2.6 min
- Kd (NPR-B [2]): 0.007 to 0.03 nM

Molecule: G19R mutation in CNP22: CNP22 with a G19R substitution (GLSKGCFGLKLDRIGSMSRLGC; ends and bridges not checked; cysteine pairing not given here; UniProt P23582 105-126, looked up, variant G19R)
- NPR-B signaling activity (NPR-B [3]): does not result in a significant loss

Molecule: GQEHPNARKYKGANKKGLSKGCFGLKLDRIGSMSGLGC (ends and bridges not checked; cysteine pairing not given here) [Gly-CNP-37]
- medial growth plate thickness ([4]; 35.5 μg IA): a reduction in medial thickness, but not a significant reduction
- Total Joint Score without Femur ([4]; 35.5 μg/dose IA): improved Total Joint Score without Femur, albeit to a lesser extent as compared to the higher dose
- damage to the calcified cartilage and subchondral bone ([4]; 35.5 μg/dose IA): reduced damage to the calcified cartilage and subchondral bone, but to a lesser extent than the higher dose
- cartilage degeneration in the tibia ([4]; 35.5 μg/dose IA): significant reduction
- medial growth plate thickness ([4]; 110 μg IA): significantly reduced
- Total Joint Score without Femur ([4]; 110 μg/dose IA): significantly reduced
- cartilage degeneration in the tibia ([4]; 110 μg/dose IA): significant reduction
- reduction of tibial osteophyte measurement ([4]; 110 μg/dose IA, p<0.05): approximately 24%
- reduction of tibial osteophyte score ([4]; 110 μg/dose IA, p<0.05): approximately 34%
- damage to the calcified cartilage and subchondral bone, score ([4]; 110 μg/dose IA, vehicle approximately 2.4): ~1.3
- improvement in substantial tibial cartilage degeneration (width) ([4]; Gly-CNP-37 treated animals (IA)): greater than 50%
- depth ratio (lesion depth / total depth), medial tibia ([4]; Gly-CNP-37 treated groups (IA) vs vehicle): improved
- Total Joint Score with Femur ([4]; both doses IA): decreases total joint score at both doses, but not to a significant level
- medial tibial subchondral/epiphyseal trabecular bone thickening/sclerosis ([4]; both doses IA vs vehicle, not significant): observable decrease
- growth plate thickness, medial minus lateral difference ([4]; higher dose IA): significantly reduced
- collagen damage across the medial tibial plateau ([4]; lower and higher doses IA vs untreated controls): fewer areas with severe, marked and moderate degeneration
- growth plate thickness, medial minus lateral difference ([4]; lower dose IA): reduced thickness of the growth plate, but not to the same extent as the higher dose
- width of the cartilage affected by any degeneration ([4]; treated groups (IA) vs vehicle): improved
- gait score Area Under the Curve (AUC) ([5]; higher dose IA): gait score being lower for both treated populations as compared to the untreated controls
- mobility and gait (gait score) ([5]; higher or lower dose IA, approximately day 15 to day 28): improvement in mobility and gait
- gait score Area Under the Curve (AUC) ([5]; lower dose IA): decreased gait score to a greater extent than the higher CNP dose
- Total Joint Score without Femur ([6]; 105 μg IA): significant reduction
- effects on histopathology lesions of medial meniscal tear-induced osteoarthritis ([6]; IA, Pro-Gly-CNP-37 35.5 and 105 μg, Gly-CNP-37 105 μg): significant beneficial effects
